“Also recorded” adds a separate entry of the source.
Experiments:
[1] = test system: pAKT and pSTAT-3 in hepatocytes; test: Western blot of Phospho-STAT3 and Phospho-AKT in primary hepatocytes; type: cell-based, rat
Method: Single-cell suspensions of hepatocytes were obtained from perfusions of Sprague-Dawley rats using the procedure of Berry and Friend (1969) and the perfusion mixture of Leffert et al (1979). Hepatocyte glucose production was estimated after a 24 hr treatment with HN, F6A and saline as described before (Berg et al. 2001). In a separate set of experiment, hepatocytes were lysed, and protein extracted in RIPA lysis buffer at 30, 60 and 360 min post treatment with FIN, F6A and saline. The cell lysates were then subject to western blotting for Phospho-STAT3 (Tyr705), total-STAT3, Phospho-AKT (Ser473), and total-AKT expression (antibodies purchased from Cell Signaling, #9131, #9132, #9271, #9272).

[2] = test system: Sprague-Dawley rats; test: Intravenous infusion of humanin or analogs during hyperinsulinemic clamp; type: in vivo, rat; settings: IV 0.0375 mg/kg/hr, clamp
[3] = test system: Sprague-Dawley rats; test: ICV infusion of IGF-1, IGFBP-3 or NLS mutant with basal and hyperinsulinemic clamp; type: in vivo, rat
Description: Young (3 mo old, n=6 in each group), male Sprague-Dawley rats (Charles River Laboratories, Wilmington, Mass.) were used for this study. Rats were housed in individual cages and were subjected to a standard light (6:00 AM to 6:00 PM)—dark (6:00 PM to 6:00 AM) cycle. All rats were fed ad libitum using regular rat chow that consisted of 64% carbohydrate, 30% protein, and 6% fat with a physiological fuel value of 3.3-kcal/g chow. In the rats that received ICV infusions, 2 to 4 weeks before the in vivo study, the rats were anesthetized by inhalation of isoflurane and a cannula was placed ICV in the third ventricle for infusions of IGF-1, IGFBP-3 or IGFBP-3 mutant or artificial cerebrospinal fluid (aCSF), as previously described (Muzumdar et al., 2003) (FIG. 1). Briefly, a 26-gauge stainless steel guide cannula (Plastics One, Roanoke, Va.) was chronically implanted into the third ventricles using the following coordinates from bregma: anterior-posterior; +0.2 mm dorsal-ventral; −9.0 mm medial-lateral; 0.0 directly on the mid-sagittal suture, followed by a 28-gauge dummy cannula, inserted to prevent clogging of the guide cannula. The implant was secured to the skull with Caulk Grip dental cement, and the skin was closed over the implant using wound clips. The recovery of rats from the surgical stress was monitored with daily weight, food intake, and movement.
Upon recovery of body weight, usually a week, indwelling catheters were placed in the right internal jugular vein and in the left carotid artery (Muzumdar et al., 2003). The venous catheter was extended to the level of the right atrium, and the arterial catheter was advanced to the level of the aortic arch. Recovery was continued until body weight was within 3% of the pre-operative weight (˜4-6 days). In the rats that received peripheral IGFBP-3, only the vascular catheters were placed.
Studies were performed in unrestrained rats using the insulin clamp technique, in combination with high performance liquid chromatography-purified [3-^3H]glucose and [U-^14C]lactate infusions, as described previously (Liu et al., 1998). Food was removed for ˜5 h before the in vivo protocol. All studies lasted 360 min and included a 120-min equilibration period, a 120-min basal period for assessment of the basal glucose turnover, and a 120-min hyperinsulinemic clamp period. All rats received ICV infusions (bolus followed by continuous ICV infusions of IGF-1, IGFBP-3, IGFBP-3 mutant or aCSF, depending on the group) over the entire 6 hours of the study. At the beginning of the basal period and 120 min before starting the glucose/insulin infusions, a primed-continuous infusion of high performance liquid chromatography-purified [3-^3H]glucose (NEN Life Science Products, Boston, Mass.; 20 μCi of bolus, 0.2 μCi/min) was initiated and maintained throughout the remaining 4 h of the study. In the final 2 hours of the study, the rats were subjected to hyperinsulinemic clamp. The protocol followed during the insulin clamp study was similar to that previously described (Liu et al., 1998). Briefly, a primed-continuous infusion of regular insulin (3 milliunits/kg·min) was administered, and a variable infusion of a 25% glucose solution was started and periodically adjusted to clamp the plasma glucose concentration at 7-8 mM. To prevent endogenous insulin secretion and in order to control for possible effects of ICV infusions on the endocrine pancreas, somatostatin (1.5 μg/kg·min) was also infused in all the groups. [U-^14C]Lactate (5 μCi of bolus/0.25 μCi/min) was infused during the last 10 min of the study.
A bolus of hIGF-1 (0.3 mcg, a gift from Tercica, South San Francisco) was followed by a continuous infusion over 6 hours (total dose of 1 mcg, 0.06 μg/kg/hr).
A bolus of non glycosylated hIGFBP-3 (1.25 μg, generously provided by Celtrix, Mountain View Calif.) was followed by a continuous infusion over 6 hours (total dose of 5.25 mcg, 0.26 μg/kg/hr). […]

[4] = target: IGF-1 (Homo sapiens, UniProt P05019); test: Western ligand blots with 125I-labeled IGF-1; type: binding; settings: data not shown
IGF-1, sequence (P05019 49-118): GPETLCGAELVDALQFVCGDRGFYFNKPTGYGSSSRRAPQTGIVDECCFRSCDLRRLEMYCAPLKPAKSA

[5] = ICV IGFBP-3, insulin clamp 3 mU/kg/min
[6] = ICV IGFBP-3 or NLS mutant over 6 h, basal period
[7] = ICV IGFBP-3 or NLS mutant over 6 h, hyperinsulinemic clamp
[8] = ICV infusion, hyperinsulinemic clamp

Row | Compound | pAKT or pSTAT-3 in hepatocytes [1] | peripheral insulin action [2] | decrease in peripheral glucose uptake [3, 5] [%] | increase in hepatic glucose production compared to controls [3, 5] [%] | Glycogen synthesis, Basal [3, 6] | Glycolysis, Basal [3, 6] [mg/kg/min] | HGP, Basal [3, 6] [mg/kg/min] | Glycogen synthesis, Clamp [3, 7] | Glycolysis, Clamp [3, 7] [mg/kg/min] | HGP, Clamp [3, 7] [mg/kg/min] | Rd, Clamp [3, 7] [mg/kg/min] | GIR, Clamp ([3]; ICV IGFBP-3 or NLS mutant over 6 h, hyperinsulinemic clamp 3 mU/kg/min) [mg/kg/min] | FFA ([3]; ICV IGFBP-3 or NLS mutant over 6 h, hyperinsulinemic clamp, last 60 min) [mEq/l] | h-IGFBP-3 ([3]; ICV IGFBP-3 or NLS mutant over 6 h, peripheral plasma) [ng/mL] | gluconeogenesis [3, 8] [mg/kg/min] | glycogenolysis / hepatic glucose fluxes compared to controls [3, 8] | insulin induced suppression of FFA compared to controls [3, 8] | whole body glucose disposal / peripheral glucose uptake (Rd) compared to controls ([3]; ICV infusion, hyperinsulinemic clamp, final 60 min) | infused human peptide in the rat periphery ([3]; after ICV infusion) | binding to 125I-labeled IGF-1 [4]
1 | CC[C@H](C)[C@H](NC(=O)[C@H](CCC(=O)O)NC(=O)[C@H](CO)NC(=O)[C@@H](NC(=O)[C@H](CC(C)C)NC(=O)[C@H](CC(C)C)NC(=O)[C@H](CC(C)C)NC(=O)[C@H](CC(C)C)NC(=O)[C@H](CS)NC(=O)[C@H](CO)NC(=O)[C@H](Cc1ccccc1)NC(=O)CNC(=O)[C@H](CCCNC(=N)N)NC(=O)[C@@H]1CCCN1C(=O)[C@H](C)NC(=O)[C@@H](N)CCSC)[C@@H](C)O)C(=O)N[C@@H](CC(=O)O)C(=O)N[C@@H](CC(C)C)C(=O)N1CCC[C@H]1C(=O)N[C@H](C(=O)N[C@@H](CCCCN)C(=O)N[C@@H](CCCNC(=N)N)C(=O)N[C@@H](CCCNC(=N)N)C(=O)N[C@@H](C)C(=O)O)C(C)C [Humanin, maprgfscll lltseidlpv krra] | did not elicit significant changes | Neither HN, nor the non-BP3-binding F6AHN (at doses of 0.0375 mg/kg/hr) altered peripheral insulin action |  |  |  |  |  |  |  |  |  |  |  |  |  |  |  |  |  | 
2 | IGFBP-3: non glycosylated hIGFBP-3 (IGF binding protein-3), provided by Celtrix |  |  | ~30 | 45 | 4.62 ± 0.69 | 9.33 ± 1.27 | 13.95 ± 0.99 | 4.46 ± 0.68 | 9.95 ± 1.05 | 7.08 ± 0.59 | 14.01 ± 0.82 | 6.95 ± 1.11 | 0.72 ± 0.06 | 0 | 0.37 ± 0.1 | significant increase | significantly reduced | significantly decreased | No hIGFBP-3 was detected; also recorded: No human IGF-1, hIGFBP-3 or NLS-IGFBP-3 was identified | bound equally

— patent US9034825B2, “Treatment of myocardial injury with humanin analogs” (Albert Einstein College of Medicine of Yeshiva University, priority 2007, dated 2015)
